The source of these data is patent US20260337214A1, “IRON BASED MRI PROBES” (The General Hospital Corporation, priority 2022, published 2026).

Some results are limits rather than exact numbers.

Holding throughout (format): physicochemical
A short description of data set [1]: pH-potentiometric titration combined with EDTA competition assay. Conditions: estimated. The procedure: The title compound was synthesized in situ by mixing the compound obtained in step 1 with 0.5 molar equiv. Fe2(SO4)3, (i.e., 1 molar equiv. Fe^3+). In one representative sample preparation, used for pH-potentiometry measurements, 7.2 mg (0.011 mmol) Ligand were mixed with 4.4 mg (0.011 mmol Fe) were mixed in 3.4 mL water (with 0.1 M NaCl), and the pH adjusted using 0.1 M NaOH. ESI-MS for [C22H22F6FeN3O7]^−: m/z [M^−]=609.1 (calc.); m/z=609.1(obsv.)
From the titration data (performed in combination with EDTA competition assay at pH 3), a log K=23.7 s estimated for Fe-CDTA-Ph-3,5-CF3.

Data set [2] can be described thus: T1-relaxivity (r1) as a function of pH. An excerpt: FIG. 5A compares the pH-dependence on T1-relaxivity (r1; the Fe induced increase in T1 relaxation rate (R1) normalized to Fe concentration in mM) for the structurally related Fe^3+ complexes Fe-CDTA-Ph-3,5-CF3 and Fe-PyCy2AI.
(§1) The term “relaxivity” as used herein, refers to the increase in either of the MR quantities 1/T1 or 1/T2 per millimolar (mM) concentration of paramagnetic ion or contrast agent, which quantities may be different if the contrast agent contains a multiplicity of paramagnetic ions, wherein T1 is the longitudinal or spin-lattice relaxation time, and T2 is the transverse or spin-spin relaxation time of water protons or other imaging or spectroscopic nuclei, including protons found in molecules other than water. Relaxivity is expressed in units of mM^−1s^−1.
FIG. 5, Panel A, compares the pH-dependence on T1-relaxivity (r1; the Fe induced increase in T1 relaxation rate (R1) normalized to Fe concentration in mM) for the structurally related Fe^3+ complexes Fe-CDTA-Ph-3,5-CF3 and Fe-PyCy2AI.

Data set [3] can be described thus: T1-relaxivity (r1) of Fe3+ versus Fe2+ complex at pH 7.4. Conditions: for relaxivity r1: normalized to Fe concentration, Fe^2+ formed in situ with excess sodium ascorbate.
Source text: FIG. 7 compares the relaxivity (r1; the Fe induced increase in T1 relaxation rate (R1) normalized to Fe concentration in mM) recorded for Fe^3+-CDTA-Ph-3,5-CF3 and Fe^2+-CDTA-Ph-3,5-CF3 at pH 7.4.
as §1
FIG. 7 compares the relaxivity (r1; the Fe induced increase in T1 relaxation rate (R1) normalized to Fe concentration in mM) recorded for Fe^3+-CDTA-Ph-3,5-CF3 and Fe^2+-CDTA-Ph-3,5-CF3 at pH 7.4. The Fe^2+ complex was formed in situ by addition of excess sodium ascorbate. The r1 values for the Fe^3+ complex ([…] mM^−1s^−1) is 7.5-times greater than the sister Fe^2+ complex (2.8±0.003 mM^−1s^−1).

The next data set can be described thus: Cyclic voltammetry. Conditions: 0.5 M KNO3, GC working, Ag/AgCl reference, Pt counter electrode.

On to `O=C(O)CN(CC(=O)O)C1CCCCC1N(CC(=O)O)CC(=O)Nc1cc(C(F)(F)F)cc(C(F)(F)F)c1.[Fe+3]` (centres unmarked) [Fe-CDTA-Ph-3,5-CF3], for which the “log K (Fe^3+ complex stability)” value in data set [1] (pH-potentiometric titration in combination with EDTA competition assay at pH 3) is given as 23.7. The pKa (in general, the pH at which an ionisable group is half protonated) in data set [1] (water, 0.1 m nacl, pH-potentiometric titration, 1 molar equiv. Fe^3+, read-out: pKa (deprotonation of ML to MLH−1)) was 4.9. For the same compound, the “speciation at pH 7.4” value in data set [2] (pH 7.4) is given as “dominated by the monomeric complex”. Besides, the “r1 (T1-relaxivity), comparison in words” value in data set [2] (pH 7.4, compared with Fe-PyC3A / Fe-PyCy2AI) was “much greater”. In addition, the pKa in data set [2] (r1 vs pH, read-out: pKa of the Fe^3+ water co-ligand) was greater than 7.4. Moreover, in data set [3] (pH 7.4), the “ratio of r1 Fe^3+ complex to Fe^2+ complex” value was 7.5 -times and the “relaxivity r1” value amounted to 2.1 ± 0.11 mM⁻¹ s⁻¹. Moreover, in data set [3] (stated in heading), the “ratio of r1 Fe^3+ complex to Fe^2+ complex (heading of Example 5)” value is listed as 10 -fold. Besides, the “oxidation and reduction waves, reversibility” value in “Cyclic voltammetry” (pH 3) was “reversible oxidation and reduction waves”. Further, in the data set “Cyclic voltammetry” (pH 8), the “separation of oxidation and reduction waves” value is given as roughly 1 V.
On to `O=C(O)CN(CC(=O)O)C1CCCCC1N(CC(=O)O)CC(=O)Nc1cc(C(F)(F)F)cc(C(F)(F)F)c1.[Fe+2]` (centres unmarked) [Fe^2+-CDTA-Ph-3,5-CF3], for which, in data set [3] (pH 7.4), the “relaxivity r1” value was 2.8 ± 0.003 mM⁻¹ s⁻¹.
